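Exposure lasted 48 hours, with cells grown in 96-well plates and compounds tested at five concentrations. Abbreviation: GI50, concentration required for 50% inhibition of growth. TGI marks complete inhibition of growth.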
Legend:
Test in all cases: NCI-60 cell line screen, 48 h
786-0 renal = test system: 786-0 renal
A498 renal = test system: A498 renal
A549 NSCLC = test system: A549 NSCLC
ACHN renal = test system: ACHN renal
CAKI-1 renal = test system: CAKI-1 renal
COLO 205 colon = test system: COLO 205 colon
DU-145 prostate = test system: DU-145 prostate
EKVX NSCLC = test system: EKVX NSCLC
HCC-2998 colon = test system: HCC-2998 colon
HCT-116 colon = test system: HCT-116 colon
HCT-15 colon = test system: HCT-15 colon
HL-60(TB) leukemia = test system: HL-60(TB) leukemia
HOP-62 NSCLC = test system: HOP-62 NSCLC
HOP-92 NSCLC = test system: HOP-92 NSCLC
HT29 colon = test system: HT29 colon
IGROV1 ovarian = test system: IGROV1 ovarian
K-562 leukemia = test system: K-562 leukemia
KM12 colon = test system: KM12 colon
LOX IMVI melanoma = test system: LOX IMVI melanoma
M14 melanoma = test system: M14 melanoma
MALME-3M melanoma = test system: MALME-3M melanoma
MCF7 breast = test system: MCF7 breast
MDA-MB-435 = test system: MDA-MB-435
MDA-N = test system: MDA-N
NCI-H226 lung = test system: NCI-H226 lung
NCI-H23 lung = test system: NCI-H23 lung
NCI-H460 lung = test system: NCI-H460 lung
NCI-H522 lung = test system: NCI-H522 lung
NCI/ADR-RES ovarian = test system: NCI/ADR-RES ovarian
OVCAR-3 ovarian = test system: OVCAR-3 ovarian
OVCAR-5 ovarian = test system: OVCAR-5 ovarian
OVCAR-8 ovarian = test system: OVCAR-8 ovarian
PC-3 prostate = test system: PC-3 prostate
SF-268 CNS = test system: SF-268 CNS
SF-295 CNS = test system: SF-295 CNS
SF-539 CNS = test system: SF-539 CNS
SK-MEL-2 melanoma = test system: SK-MEL-2 melanoma
SK-MEL-28 melanoma = test system: SK-MEL-28 melanoma
SK-MEL-5 melanoma = test system: SK-MEL-5 melanoma
SK-OV-3 ovarian = test system: SK-OV-3 ovarian
SN12C renal = test system: SN12C renal
SNB-19 CNS = test system: SNB-19 CNS
SNB-75 CNS = test system: SNB-75 CNS
SR leukemia = test system: SR leukemia
SW-620 colon = test system: SW-620 colon
T-47D breast = test system: T-47D breast
TK-10 renal = test system: TK-10 renal
U251 CNS = test system: U251 CNS
UACC-257 melanoma = test system: UACC-257 melanoma
UACC-62 melanoma = test system: UACC-62 melanoma
CCRF-CEM leukemia = test system: CCRF-CEM leukemia
MDA-MB-231 breast = test system: MDA-MB-231 breast
MOLT-4 leukemia = test system: MOLT-4 leukemia
RPMI-8226 leukemia = test system: RPMI-8226 leukemia
UO-31 renal = test system: UO-31 renal
OVCAR-4 ovarian = test system: OVCAR-4 ovarian

SMILES: CC1(C)CSCC(C)(C)C(=N/N)/C1=N\N
- TGI (786-0 renal): > 100 µM
- TGI (A498 renal): > 100 µM
- TGI (A549 NSCLC): > 100 µM
- TGI (ACHN renal): > 100 µM
- TGI (CAKI-1 renal): > 100 µM
- TGI (COLO 205 colon): > 100 µM
- TGI (DU-145 prostate): > 100 µM
- TGI (EKVX NSCLC): > 100 µM
- TGI (HCC-2998 colon): > 100 µM
- TGI (HCT-116 colon): > 100 µM
- TGI (HCT-15 colon): > 100 µM
- TGI (HL-60(TB) leukemia): > 100 µM
- TGI (HOP-62 NSCLC): > 100 µM
- TGI (HOP-92 NSCLC): > 100 µM
- TGI (HT29 colon): > 100 µM
- TGI (IGROV1 ovarian): > 100 µM
- TGI (K-562 leukemia): > 100 µM
- TGI (KM12 colon): > 100 µM
- TGI (LOX IMVI melanoma): > 100 µM
- TGI (M14 melanoma): > 100 µM
- TGI (MALME-3M melanoma): > 100 µM
- TGI (MCF7 breast): > 100 µM
- TGI (MDA-MB-435): > 100 µM
- TGI (MDA-N): > 100 µM
- TGI (NCI-H226 lung): > 100 µM
- TGI (NCI-H23 lung): > 100 µM
- TGI (NCI-H460 lung): > 100 µM
- TGI (NCI-H522 lung): > 100 µM
- TGI (NCI/ADR-RES ovarian): > 100 µM
- TGI (OVCAR-3 ovarian): > 100 µM
- TGI (OVCAR-5 ovarian): > 100 µM
- TGI (OVCAR-8 ovarian): > 100 µM
- TGI (PC-3 prostate): > 100 µM
- TGI (SF-268 CNS): > 100 µM
- TGI (SF-295 CNS): > 100 µM
- TGI (SF-539 CNS): > 100 µM
- TGI (SK-MEL-2 melanoma): > 100 µM
- TGI (SK-MEL-28 melanoma): > 100 µM
- TGI (SK-MEL-5 melanoma): > 100 µM
- TGI (SK-OV-3 ovarian): > 100 µM
- TGI (SN12C renal): > 100 µM
- TGI (SNB-19 CNS): > 100 µM
- TGI (SNB-75 CNS): > 100 µM
- TGI (SR leukemia): > 100 µM
- TGI (SW-620 colon): > 100 µM
- TGI (T-47D breast): > 100 µM
- TGI (TK-10 renal): > 100 µM
- TGI (U251 CNS): > 100 µM
- TGI (UACC-257 melanoma): > 100 µM
- TGI (UACC-62 melanoma): > 100 µM

SMILES: CCOC(=O)C(NC(=O)CC)(C(F)(F)F)P(=O)(OCC)OCC (stereo not given)
- TGI (A498 renal): > 100 µM
- TGI (ACHN renal): > 100 µM
- TGI (CCRF-CEM leukemia): > 100 µM
- TGI (DU-145 prostate): > 100 µM
- TGI (EKVX NSCLC): > 100 µM
- TGI (HCC-2998 colon): > 100 µM
- TGI (HCT-116 colon): > 100 µM
- TGI (HCT-15 colon): > 100 µM
- TGI (HL-60(TB) leukemia): > 100 µM
- TGI (HOP-62 NSCLC): > 100 µM
- TGI (HT29 colon): > 100 µM
- TGI (K-562 leukemia): > 100 µM
- TGI (M14 melanoma): > 100 µM
- TGI (MALME-3M melanoma): > 100 µM
- TGI (MCF7 breast): > 100 µM
- TGI (MDA-MB-231 breast): > 100 µM
- TGI (MDA-MB-435): > 100 µM
- TGI (MDA-N): > 100 µM
- TGI (MOLT-4 leukemia): > 100 µM
- TGI (NCI-H522 lung): > 100 µM
- TGI (RPMI-8226 leukemia): > 100 µM
- TGI (SF-268 CNS): > 100 µM
- TGI (SF-539 CNS): > 100 µM
- TGI (SK-MEL-28 melanoma): > 100 µM
- TGI (SK-OV-3 ovarian): > 100 µM
- TGI (SN12C renal): > 100 µM
- TGI (SNB-75 CNS): > 100 µM
- TGI (SR leukemia): > 100 µM
- TGI (T-47D breast): > 100 µM
- TGI (U251 CNS): > 100 µM
- TGI (UACC-62 melanoma): > 100 µM
- TGI (UO-31 renal): > 100 µM

SMILES: CC(=O)O[C@H]1C(=O)[C@@]2(C)[C@H]([C@H](OC(=O)c3ccccc3)[C@]3(O)C[C@H](OC(=O)[C@H](O)[C@@H](NC(=O)c4ccoc4)c4ccccc4)C(C)=C1C3(C)C)[C@]1(OC(C)=O)CO[C@@H]1C[C@@H]2O
- TGI (A498 renal): 0.698 µM
- TGI (A549 NSCLC): > 100 µM
- GI50 (ACHN renal): 0.0584 µM
- TGI (ACHN renal): > 100 µM
- GI50 (CCRF-CEM leukemia): 0.0334 µM
- TGI (CCRF-CEM leukemia): > 100 µM
- TGI (COLO 205 colon): 16.9 µM
- TGI (DU-145 prostate): > 100 µM
- GI50 (EKVX NSCLC): 17.2 µM
- TGI (EKVX NSCLC): > 100 µM
- GI50 (HCT-15 colon): 0.907 µM
- TGI (HCT-15 colon): > 100 µM
- TGI (HOP-62 NSCLC): 16.4 µM
- GI50 (K-562 leukemia): 0.0337 µM
- TGI (K-562 leukemia): > 100 µM
- TGI (KM12 colon): 14.1 µM
- TGI (LOX IMVI melanoma): > 100 µM
- TGI (M14 melanoma): 0.661 µM
- TGI (MDA-MB-435): 0.039 µM
- TGI (MDA-N): 0.0166 µM
- GI50 (MOLT-4 leukemia): 0.042 µM
- TGI (MOLT-4 leukemia): > 100 µM
- TGI (NCI-H23 lung): 31.2 µM
- TGI (NCI-H460 lung): 28 µM
- TGI (NCI/ADR-RES ovarian): > 100 µM
- TGI (OVCAR-4 ovarian): > 100 µM
- TGI (OVCAR-5 ovarian): 0.091 µM
- TGI (OVCAR-8 ovarian): 47.8 µM
- TGI (PC-3 prostate): > 100 µM
- TGI (RPMI-8226 leukemia): > 100 µM
- TGI (SF-268 CNS): > 100 µM
- TGI (SF-295 CNS): 22.9 µM
- TGI (SF-539 CNS): 0.257 µM
- GI50 (SK-MEL-2 melanoma): 27.8 µM
- TGI (SK-MEL-5 melanoma): 0.399 µM
- TGI (SK-OV-3 ovarian): 32.7 µM
- TGI (SN12C renal): > 100 µM
- TGI (SNB-19 CNS): > 100 µM
- GI50 (SNB-75 CNS): 0.0531 µM
- TGI (SR leukemia): 47 µM
- TGI (SW-620 colon): > 100 µM
- GI50 (T-47D breast): 26.3 µM
- TGI (T-47D breast): > 100 µM
- GI50 (TK-10 renal): 0.164 µM
- TGI (TK-10 renal): 40.4 µM
- TGI (UACC-257 melanoma): 68.5 µM
- TGI (UACC-62 melanoma): 31.9 µM
- TGI (UO-31 renal): > 100 µM

Reference: PubChem BioAssay (NCI)
